Experimental data: publication PMC11769294, “(E)-1-(3-(3-Hydroxy-4-Methoxyphenyl)-1-(3,4,5-Trimethoxyphenyl)allyl)-1H-1,2,4-Triazole and Related Compounds: Their Synthesis and Biological Evaluation as Novel Antimitotic Agents Targeting Breast Cancer” (Pharmaceuticals, 2025)

System: MDA-MB-231 breast cancer cells
Test: alamarBlue cell viability assay
Type: cell-based
Conditions: Homo sapiens
Procedure: HL-60 cells were suspension cells and the seeding density for the viability assay was 25,000 cells/mL. MCF-7 cells (adherent) were cultured in Minimum Essential Media (MEM) with GlutaMAX™-I, supplemented with 1% (v/v) non-essential amino acids, 10% (v/v) fetal bovine serum (FBS), purchased from BD Biosciences (Edmund Halley Road, Oxford, UK), and 1% (v/v) penicillin/streptomycin 5000 U/mL. The MCF-7 cells used in the screening of the compounds during these experiments were mycoplasma-free. The seeding density of MCF-7 in the viability assay was 25,000 cells/mL and 50,000 cells/mL in the FACS assay. […]
The biochemical assays were performed in triplicate and on at least three independent occasions to facilitate the determination of mean values. […] Adherent cells such as MCF-7, MDA-MB-231, and MCF-10A were trypsinized to detach them from the flask, counted as previously described, and seeded in 96 well plates with a seeding density of 25,000 cells /mL (200 µL of suspension in each well so that the final number of cells per well was 5000) and 1 × 10^4 cells/well seeding density for suspension HL-60 cells. […] After 72 h, the change in color was measured by spectrofluorimetry at an excitation wavelength of 544 nm and emission wavelength of 590 nm. […]

`COc1ccc(/C=C/C(c2cc(OC)c(OC)c(OC)c2)n2cncn2)cc1O` (centres unmarked) [Compound 22b, (E)-5-(3-(1H-1,2,4-Triazol-1-yl)-3-(3,4,5-trimethoxyphenyl)prop-1-en-1-yl)-2-methoxyphenol] was tested, and the IC50 was 0.77 µM and the IC50 (72 h) was 0.765 ± 0.03 µM.
